In patent publication US11208384B2, “Sulfinylpyridines and their use in the treatment of cancer” (Oblique Therapeutics AB, priority 2017, dated 2021):
pIC50: −log10 of the molar value.

How the values were obtained:
[1] = biological target: recombinant thioredoxin reductase 1 (TrxR1) (Homo sapiens (Human), UniProt Q16881); assay: Inhibition of recombinant TrxR1 (DTNB assay); type: biochemical; settings: 30 nM TrxR1, 250 μM NADPH, 15 minutes incubation, O.D. 412 nm, read-out: TrxR inhibition (IC50)
recombinant thioredoxin reductase 1 (TrxR1), sequence (Q16881 151-649): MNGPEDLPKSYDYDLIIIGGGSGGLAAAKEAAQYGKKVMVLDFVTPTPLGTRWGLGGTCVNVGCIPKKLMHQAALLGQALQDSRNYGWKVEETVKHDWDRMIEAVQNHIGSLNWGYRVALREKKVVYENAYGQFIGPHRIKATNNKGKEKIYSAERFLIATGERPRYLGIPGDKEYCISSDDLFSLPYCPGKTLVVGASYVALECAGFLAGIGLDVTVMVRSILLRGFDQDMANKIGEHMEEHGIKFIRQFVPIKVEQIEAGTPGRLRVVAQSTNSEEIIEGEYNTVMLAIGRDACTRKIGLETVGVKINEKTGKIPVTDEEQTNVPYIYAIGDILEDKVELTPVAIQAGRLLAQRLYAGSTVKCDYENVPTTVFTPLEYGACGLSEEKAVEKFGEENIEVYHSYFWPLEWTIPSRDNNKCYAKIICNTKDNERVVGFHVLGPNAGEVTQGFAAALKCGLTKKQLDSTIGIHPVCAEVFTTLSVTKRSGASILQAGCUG
Description: (§1) Small molecule inhibition of recombinant thioredoxin reductase 1 (TrxR1) and gluthathione reductase (GR) was examined in 96-well plate format. 30 nM TrxR1 was incubated in the presence of 250 μM NADPH, 0.1 mg/ml BSA, and various concentrations of compound (1% DMSO final) in 50 mM Tris (pH 7.5) and 2 mM EDTA buffer for 15 minutes. Following the incubation period, 2 mM DTNB was added to each well and the change in O.D. at 412 nm was followed. Percent activity was determined using DMSO vehicle and no TrxR1 (blank) controls. 2 nM GR was incubated in the presence of 250 μM NADPH, 0.1 mg/ml BSA, and various concentrations of compounds (1% DMSO final) in 50 mM Tris (pH 7.5) and 2 mM EDTA buffer for 15 minutes. Following the incubation period, 1 mM GSSG was added to each well and the change in O.D. at 340 nm was followed. Percent activity was determined using DMSO vehicle and no GR (blank) controls.

[2] = biological target: recombinant gluthathione reductase (GR) (Homo sapiens (Human), UniProt P00390); assay: Inhibition of recombinant GR (GSSG assay); type: biochemical; settings: 2 nM GR, 250 μM NADPH, 15 minutes incubation, O.D. 340 nm
recombinant gluthathione reductase (GR), sequence (P00390 44-522): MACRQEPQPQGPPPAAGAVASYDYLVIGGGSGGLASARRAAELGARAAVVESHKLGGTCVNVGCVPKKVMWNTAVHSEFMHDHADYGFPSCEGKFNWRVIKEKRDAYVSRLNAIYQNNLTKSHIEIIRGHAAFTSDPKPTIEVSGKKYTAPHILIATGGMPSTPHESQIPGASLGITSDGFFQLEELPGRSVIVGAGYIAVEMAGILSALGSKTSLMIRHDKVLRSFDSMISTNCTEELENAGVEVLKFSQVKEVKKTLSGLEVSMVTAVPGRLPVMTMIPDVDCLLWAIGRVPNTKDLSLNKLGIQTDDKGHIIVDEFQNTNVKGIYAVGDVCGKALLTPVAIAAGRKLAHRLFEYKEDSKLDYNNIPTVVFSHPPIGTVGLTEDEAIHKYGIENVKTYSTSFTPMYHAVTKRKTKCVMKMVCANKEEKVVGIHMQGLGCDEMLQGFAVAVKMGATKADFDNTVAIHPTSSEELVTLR
Description: as §1

MDA-MB-231 cells = assay: Breast cancer cell viability assay (Alamar Blue); type: cell-based; settings: Homo sapiens, 72 hrs, 10% FBS media containing 25 nM selenite, 2000 cells/well
Description: MDA-MB-231 cells were plated 2000 cells/well in 96-well black optical plates in the presence of 10% FBS media containing 25 nM selenite. The following day cells were treated with various concentrations of compounds (0.1% DMSO final) and incubated for 72 hrs. After the incubation Alamar Blue reagent was added to each well and incubated for additional 3 hrs. Fluorescence was read ex:530 nm/em:590 nm, and percent of viability was determined using DMSO vehicle and no cell (blank) controls.

U-87 MG = assay: Cancer cell viability assay (MTT), U-87 MG; type: cell-based; settings: Homo sapiens, 72 hrs, 4000 cells/well, 10% FBS media
Description: (§2) Breast cancer and glioblastoma cell lines were plated 4000 cells/well in 96-well plates in the presence of 10% FBS media. The following day cells were treated with various concentrations of the compound of Example 1 (0.1% DMSO final) and incubated for 72 hrs. After the incubation An MTT assay was performed to access cell viability. Percent of viability was determined using DMSO vehicle and no cell (blank) controls.

MDA-MB-231 = assay: Cancer cell viability assay (MTT), MDA-MB-231; type: cell-based; settings: Homo sapiens, 72 hrs, 4000 cells/well, 10% FBS media
Description: as §2

MDA-MB-468 = assay: Cancer cell viability assay (MTT), MDA-MB-468; type: cell-based; settings: Homo sapiens, 72 hrs, 4000 cells/well, 10% FBS media
Description: as §2

- pIC50 [1]: 8.50
- pIC50 [2]: 4.38
- pIC50 (MDA-MB-231 cells): 5.52
- pIC50 (U-87 MG): 5.17
- pIC50 (MDA-MB-231): 5.28
- pIC50 (MDA-MB-468): 5.41
Structure (SMILES): COc1ccc([N+](=O)[O-])c([S+]([O-])c2ccc(Cl)cc2)n1 (stereo not drawn) [Example 1, 2-((4-Chlorophenyl)sulfinyl)-6-methoxy-3-nitropyridine]
